Data reported in US20130296393A1, “METHOD FOR CONTROLLING CLUBROOT” (ISHIHARA SANGYO KAISHA, LTD., priority 2011, published 2013).

Test system: Plasmodiophora brassicae
Assay: Influence of rainfall on clubroot control effect in cabbage (Example 4 / Comparative Example 4)
Format: in vivo
Set-up: key to Disease severity: 0–100 index: Σ(plants×disease index 0–4)/(plants×4)×100; key to Disease control value: {1−(treatment severity/control severity)}×100; 100 = full control
Conditions: pot; for Disease control value / Disease severity: 67 days after settled planting
Description: Disease severity={Σ(number of each index of diseased plants×disease index)/(number of plants surveyed×4)}×100
Disease control value={1−(treatment disease severity/control disease severity)}×100
0: No adhesion of clubroot, 1: clubroot adhesion to lateral root, 2: clubroot adhesion to the entire lateral root or clubroot adhesion to a part of tap root, 3: adhesion of large clubroot to tap root, and 4: clubroot adhesion to the entire tap root.
The test was carried out by the same method as in Example 3 except for preparing an area subjected to a rainfall treatment of 20 mm by means of a rainfall apparatus (a treatment at a rate of 10 mm/hour for 2 hours) the day before treatment, and an area not subjected to the rainfall treatment. Sixty-seven days after the settled planting, the number of each index of clubroot adhesion to the root was investigated. For comparison, the same test was carried out on a control section where a soil drench treatment with the chemical solution for spraying was not applied.
The test was carried out by the same method as in Example 4 except that in place of the soil drench treatment with the chemical solution for spraying, 30 kg/10 a of 0.3% flusulfamide (dust formulation of Nebijin [trade name], manufactured by Mitsui Chemicals Agro, Inc.) was applied to the test soil just before the settled planting and incorporated into the soil by means of a small mixer (interfusion depth: 15 cm).
The disease severity and disease control value of Example 4 and Comparative Example 4 were determined by the same methods as in Example 1 and Comparative Example 1. In addition, the weight of cabbage in the aerial part was measured. Furthermore, the test result was shown by the average value of five plantings.

[1] = with rainfall treatment 20 mm, 50 ppm soil drench 250 ml/plant 4 days after settled planting
[2] = with rainfall treatment 20 mm, 50 ppm soil drench 250 ml/plant 7 days after settled planting
[3] = with rainfall treatment 20 mm, 50 ppm soil drench 250 ml/plant 14 days after settled planting
[4] = with rainfall treatment 20 mm, 50 ppm soil drench 250 ml/plant just after settled planting
[5] = without rainfall treatment, 50 ppm soil drench 250 ml/plant just after settled planting

Cc1ccc(-c2c(Cl)nc(C#N)n2S(=O)(=O)N(C)C)cc1 [cyazofamid, 4-chloro-2-cyano-1-dimethylsulfamoyl-5-(4-methylphenyl)imidazole]
Weight in the aerial part [1]: 133 g | Disease control value [1]: 100 | Disease severity [1]: 0 | Weight in the aerial part [2]: 129 g | Disease control value [2]: 93 | Disease severity [2]: 5 | Weight in the aerial part [3]: 103 g | Disease control value [3]: 29 | Disease severity [3]: 50 | Weight in the aerial part [4]: 121 g | Disease control value [4]: 100 | Disease severity [4]: 0 | Control effect (with rainfall treatment, soil drench within 7 days after settled planting): a practical control effect was obtained | Weight in the aerial part [5]: 129 g | Disease control value [5]: 100 | Disease severity [5]: 0
